Measurements published in ChEMBL document CHEMBL1201862, “PubChem BioAssay data set” (2004).
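The compound was tested at five concentrations on cells cultured in 96-well plates, with a 48-hour exposure period. At the GI50, growth is halved.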 The source made the active and inactive calls. Rule as the data show it: active = GI50 up to about 1.1 µM and inactive = higher.

Experiments:
Experiment in all cases: NCI anticancer screen, dose series, 48 h
SW-620 = tested on: SW-620
HOP-62 = tested on: HOP-62
MDA-MB-435 = tested on: MDA-MB-435
LOX IMVI = tested on: LOX IMVI
U-251 = tested on: U-251
MDA-N = tested on: MDA-N
RPMI-8226 = tested on: RPMI-8226
IGROV-1 = tested on: IGROV-1
SK-MEL-2 = tested on: SK-MEL-2
A549 = tested on: A549
OVCAR-3 = tested on: OVCAR-3
MOLT-4 = tested on: MOLT-4
ACHN = tested on: ACHN
M14 = tested on: M14
K562 = tested on: K562
OVCAR-4 = tested on: OVCAR-4
SNB-19 = tested on: SNB-19
SK-MEL-28 = tested on: SK-MEL-28
NCI-H460 = tested on: NCI-H460
Hs-578T = tested on: Hs-578T

Measured: GI50

Brc1ccc2c(c1)C1=C(CO2)Cc2ccccc2O1
inactive: SW-620 23.4 µM | HOP-62 15.6 µM | MDA-MB-435 16.9 µM | LOX IMVI 17.4 µM | U-251 19.1 µM | MDA-N 13.2 µM | RPMI-8226 18.2 µM | IGROV-1 12.4 µM | SK-MEL-2 17.7 µM | A549 21.6 µM | OVCAR-3 16.2 µM | MOLT-4 20 µM | ACHN 19.2 µM | M14 19.3 µM | K562 16.2 µM | OVCAR-4 16.8 µM

C[Si](C)(C)OC1CC(=O)OC1n1cc(F)c(=O)[nH]c1=O (stereo not drawn)
inactive: SW-620 24.2 µM | HOP-62 15.7 µM | LOX IMVI 7.94 µM | U-251 43 µM | RPMI-8226 3.14 µM | IGROV-1 > 96.6 µM | SNB-19 > 55.1 µM | SK-MEL-2 > 100 µM | A549 4.38 µM | OVCAR-3 52.8 µM | SK-MEL-28 15.8 µM | NCI-H460 3.72 µM | MOLT-4 17.8 µM | ACHN 11.7 µM | M14 48.6 µM | K562 26.4 µM | OVCAR-4 > 28.4 µM

C=CCN(Cc1ccncc1)C(=O)C(O)(c1ccccc1)c1ccccc1
inactive: SW-620 > 100 µM | HOP-62 > 100 µM | MDA-MB-435 17.3 µM | LOX IMVI 97.9 µM | U-251 76.2 µM | MDA-N 45.8 µM | RPMI-8226 22 µM | IGROV-1 > 100 µM | SNB-19 95.7 µM | A549 79.3 µM | OVCAR-3 50.6 µM | SK-MEL-28 76.4 µM | MOLT-4 27.8 µM | ACHN > 100 µM | M14 56 µM | K562 45.2 µM

O=C1C(=O)C(Br)(Br)C(Br)=C1Br
inactive: SW-620 13.8 µM | HOP-62 > 100 µM | LOX IMVI 13.7 µM | U-251 25.2 µM | RPMI-8226 22.3 µM | IGROV-1 38.1 µM | SNB-19 68.9 µM | SK-MEL-2 17.1 µM | A549 37.4 µM | OVCAR-3 15.5 µM | SK-MEL-28 15.6 µM | NCI-H460 34 µM | MOLT-4 24.4 µM | ACHN 15.9 µM | M14 17.6 µM | K562 20 µM | OVCAR-4 22.4 µM

CNC(=O)N1CN(c2ccccc2)C2(CCN(Cc3ccccc3)CC2)C1=O
inactive: SW-620 46.1 µM | HOP-62 > 100 µM | LOX IMVI 50.5 µM | U-251 > 100 µM | MDA-N 29.2 µM | RPMI-8226 43.4 µM | IGROV-1 5 µM | SNB-19 > 100 µM | A549 > 100 µM | OVCAR-3 > 100 µM | SK-MEL-28 > 100 µM | MOLT-4 14.2 µM | ACHN > 100 µM | M14 > 100 µM | K562 31.8 µM

C=C(CCCCC)CN1CCCC1[C@@](C)(O)CC(=O)OCC (stereo partly drawn)
inactive: SW-620 > 100 µM | HOP-62 > 100 µM | LOX IMVI > 100 µM | U-251 > 100 µM | RPMI-8226 > 100 µM | IGROV-1 > 100 µM | SNB-19 > 100 µM | SK-MEL-2 > 100 µM | A549 > 100 µM | OVCAR-3 > 100 µM | SK-MEL-28 > 100 µM | NCI-H460 > 100 µM | MOLT-4 90.2 µM | ACHN > 100 µM | M14 > 100 µM | K562 > 100 µM | OVCAR-4 > 100 µM

CCOC(CCCN1CCC2(CC1)C(=O)N(C)CN2c1ccccc1)(OCC)c1ccc(F)cc1
inactive: SW-620 10.4 µM | HOP-62 4.6 µM | LOX IMVI 16.1 µM | U-251 12.2 µM | MDA-N 11.6 µM | RPMI-8226 10.5 µM | IGROV-1 8.41 µM | SNB-19 10.2 µM | A549 8.65 µM | OVCAR-3 13.6 µM | SK-MEL-28 16.8 µM | MOLT-4 7.11 µM | ACHN 5.16 µM | M14 10.7 µM | K562 14 µM

COc1cc(NCc2ccc3nc(OC)c(OC)nc3c2)cc(OC)c1OC
inactive: SW-620 > 100 µM | HOP-62 > 100 µM | MDA-MB-435 > 100 µM | LOX IMVI > 100 µM | U-251 > 100 µM | MDA-N > 100 µM | IGROV-1 > 100 µM | SNB-19 > 100 µM | SK-MEL-2 > 100 µM | A549 > 100 µM | OVCAR-3 > 100 µM | SK-MEL-28 > 100 µM | NCI-H460 > 100 µM | MOLT-4 > 100 µM | ACHN > 100 µM | M14 > 100 µM | K562 97.3 µM | OVCAR-4 > 100 µM

O=C1CCCC2=C1CC1=C(CCCC1=O)N2c1ccccc1
inactive: SW-620 > 100 µM | LOX IMVI > 100 µM | U-251 > 100 µM | RPMI-8226 > 100 µM | IGROV-1 > 100 µM | Hs-578T > 100 µM | SNB-19 > 100 µM | A549 > 100 µM | OVCAR-3 > 100 µM | SK-MEL-28 > 100 µM | NCI-H460 > 100 µM | MOLT-4 > 100 µM | ACHN > 100 µM | M14 > 100 µM | K562 > 100 µM | OVCAR-4 > 100 µM

N#CNc1nc(N)c(-c2ccc(Cl)cc2)c(C(=O)Nc2nccs2)n1
inactive: SW-620 > 100 µM | HOP-62 > 100 µM | LOX IMVI > 100 µM | U-251 > 100 µM | RPMI-8226 > 100 µM | IGROV-1 > 100 µM | SNB-19 > 100 µM | SK-MEL-2 > 100 µM | A549 > 100 µM | OVCAR-3 > 100 µM | SK-MEL-28 > 100 µM | NCI-H460 > 100 µM | MOLT-4 > 100 µM | ACHN > 100 µM | M14 > 100 µM | K562 > 100 µM | OVCAR-4 > 100 µM

CC(=O)n1c2ccccc2c2nc3nc(Oc4ccc(C)cc4)c4ccccc4c3cc21
inactive: SW-620 > 100 µM | HOP-62 57 µM | LOX IMVI > 100 µM | U-251 41.6 µM | RPMI-8226 > 100 µM | IGROV-1 > 100 µM | SNB-19 92 µM | SK-MEL-2 > 100 µM | A549 > 100 µM | OVCAR-3 > 100 µM | SK-MEL-28 > 100 µM | NCI-H460 > 100 µM | MOLT-4 > 100 µM | ACHN > 100 µM | M14 > 100 µM | K562 > 100 µM | OVCAR-4 29.4 µM

CCN(CC)/N=N/c1c(C(N)=O)n[nH]c1C
inactive: SW-620 71.3 µM | HOP-62 31.2 µM | MDA-MB-435 77.4 µM | LOX IMVI 28.6 µM | U-251 59 µM | RPMI-8226 44.2 µM | IGROV-1 > 100 µM | Hs-578T 45.9 µM | SNB-19 77.1 µM | SK-MEL-2 > 100 µM | A549 69 µM | OVCAR-3 > 100 µM | SK-MEL-28 > 100 µM | NCI-H460 31.2 µM | ACHN 32.8 µM | M14 > 100 µM | OVCAR-4 > 100 µM
